Paper PMC12430133, “GABAergic and α-Glucosidase-Inhibitory Potentials of Fractions and Isolated Xanthones from Hypericum revolutum Vahl subsp. revolutum” (Molecules, 2025)

Key:
[1] = target: α-glucosidase; test: In vitro α-glucosidase-inhibitory assay; type: biochemical
Description: The alpha-glucosidase-inhibitory potency of the fractions was assessed by determining whether the fractions can inhibit the activity of α-glucosidase, a carbohydrate-digesting enzyme. The fractions were tested at a concentration of 60 µg/mL.
A previous method [66] was adopted to perform the glucosidase inhibition assay. It was performed on a 96-well transparent plate. […] Next, 50 µL of 10 mM 4-nitrophenyl-β-D-glucopyranoside substrate solution (dissolved in 100 mM phosphate buffer, pH 6.8) was added, and incubation continued for an additional 20 min under the same incubation conditions. After incubation, the enzyme-substrate reaction was stopped by adding 100 µL of a 0.1 M Na2CO3 solution, and absorbance was measured at 405 nm. The absorbances were blanked using the sample and solvent blanks. The enzyme inhibition activity of the samples was computed using the formula below: Enzyme inhibition activity%=Absorbance of control−Absorbance of test/Absorbance of control×100

[2] = target: T1, GABAA receptor subtype (α1, β2, and γ2S subunits) (Homo sapiens, UniProt P14867+P18507+P47870); test: Functional GABAA receptor assay: modulation of GABA-induced chloride currents (IGABA), two-microelectrode voltage clamp in Xenopus laevis oocytes; type: cell-based; conditions: 100 µg/mL, isolated compounds; for IGABA potentiation: GABA EC10, mean ± S.E.M
T1 construct: expressed in transfected cells; host or cells: Xenopus laevis oocytes (Ecocyte), cRNA-injected
Description: The effects of both fractions and isolated compounds from the PS and PL extracts were determined on GABA-induced chloride currents through the predominantly occurring GABAA receptor subtype (comprising α1, β2, and γ2S subunits). GABAA receptors were heterologously expressed in Xenopus laevis (Grade I–II) oocytes as described previously. The fractions and compounds were tested at a concentration of 100 µg/mL. For the fractions, a 100 µg/mL concentration was used in assessing their IGABA modulatory potential because previous studies have also used the same concentration to assess the IGABA modulatory potential of plant extracts and/or fractions in a similar experimental model. For the compounds, we tested their IGABA modulatory potential at 100 µg/mL to maintain a consistent concentration as the fractions, which provides a comparative perspective about the efficacy of the compounds relative to the fractions.
In brief, defolliculated oocytes were obtained from Ecocyte (Dortmund, Germany) and injected with 50–75 nL of nuclease-free water containing a mixture (ratio 1:1:10) of cRNAs encoding for the major GABAA receptor subtype (α1, β2, and γ2S; concentrations ranging between 100 and 2000 ng/μL/subunit) using a Nanoject III microinjector (Drummond Scientific Company, Broomall, PA, USA). Oocytes were stored at 18 °C in ND96 solution composed of 90 mM NaCl, 1 mM KCl, 1 mM MgCl2·6H2O, 1 mM CaCl2, and 5 mM 2-(4-(2-hydroxyethyl)-1-piperazinyl)ethanesulfonic acid (HEPES), with pH adjusted to 7.4 using 1 M NaOH and supplemented with 100 U/mL penicillin and 10 µg/mL streptomycin. Functional characterisation was then carried out 1–3 days post-injection using two-microelectrode voltage-clamp (TEVC) recordings holding oocytes at −70 mV using a TURBO TEC 03C amplifier (NPI Electronic, Tamm, Germany) connected to an Axon Digidata 1440A digitiser (Molecular Devices, Sunnyvale, CA, USA). Data acquisition was performed using pCLAMP software version 10.3 (Molecular Devices), and current traces were analysed offline. Microelectrodes were filled with 2 M KCl and had resistances between 1 and 3 MΩ. GABA and test compounds were applied using a TECAN Miniprep 60 (npi electronic, Tamm, Germany), permitting semi-automation of the experiments coupled to a fast perfusion system. The oocyte-containing chamber was perfused with 200 µL GABA-containing solutions at a volume rate between 150 and 200 µL/s to elicit chloride currents through GABAA receptors (IGABA). Modulation of IGABA by the compounds was measured at a GABA concentration eliciting 10% of the maximal current amplitude (EC10), peak amplitudes were measured, and the effect was calculated using the following formula: IGABA potentiation%=Amplitude IGABA−sample−Amplitude IGABA−control/Amplitude IGABA−control×100
IGABA+Sample is the current induced by co-application of GABA and the tested sample, while IGABA−control is the current induced by application of GABA alone.

T1 sequence (P14867 28-456): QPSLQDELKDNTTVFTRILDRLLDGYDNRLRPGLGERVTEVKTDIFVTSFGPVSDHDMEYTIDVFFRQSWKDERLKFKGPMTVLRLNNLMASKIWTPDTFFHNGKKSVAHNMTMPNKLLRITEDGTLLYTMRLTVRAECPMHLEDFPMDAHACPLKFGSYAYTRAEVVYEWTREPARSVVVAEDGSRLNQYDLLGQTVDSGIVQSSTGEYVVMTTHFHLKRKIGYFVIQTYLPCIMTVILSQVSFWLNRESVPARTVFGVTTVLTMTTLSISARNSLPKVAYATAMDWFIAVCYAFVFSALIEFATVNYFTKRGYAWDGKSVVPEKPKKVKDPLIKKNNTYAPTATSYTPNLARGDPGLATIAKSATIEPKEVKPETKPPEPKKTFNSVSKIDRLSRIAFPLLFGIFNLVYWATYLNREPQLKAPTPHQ
T1 sequence (P47870 25-512 limits assumed): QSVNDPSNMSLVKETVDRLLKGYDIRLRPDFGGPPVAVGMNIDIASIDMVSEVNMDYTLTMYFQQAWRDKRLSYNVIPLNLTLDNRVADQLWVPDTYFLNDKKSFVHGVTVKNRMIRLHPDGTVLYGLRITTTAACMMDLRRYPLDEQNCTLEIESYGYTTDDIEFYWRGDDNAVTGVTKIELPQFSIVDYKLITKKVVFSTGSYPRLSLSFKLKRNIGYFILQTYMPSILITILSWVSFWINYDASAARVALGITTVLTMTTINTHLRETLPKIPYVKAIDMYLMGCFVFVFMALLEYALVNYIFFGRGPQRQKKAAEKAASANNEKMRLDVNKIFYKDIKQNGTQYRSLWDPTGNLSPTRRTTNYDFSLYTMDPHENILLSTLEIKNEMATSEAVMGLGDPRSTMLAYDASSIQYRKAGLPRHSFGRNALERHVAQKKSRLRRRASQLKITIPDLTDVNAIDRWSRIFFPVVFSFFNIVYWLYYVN
T1 sequence (P18507 40-467 isoform P18507-1 limits assumed): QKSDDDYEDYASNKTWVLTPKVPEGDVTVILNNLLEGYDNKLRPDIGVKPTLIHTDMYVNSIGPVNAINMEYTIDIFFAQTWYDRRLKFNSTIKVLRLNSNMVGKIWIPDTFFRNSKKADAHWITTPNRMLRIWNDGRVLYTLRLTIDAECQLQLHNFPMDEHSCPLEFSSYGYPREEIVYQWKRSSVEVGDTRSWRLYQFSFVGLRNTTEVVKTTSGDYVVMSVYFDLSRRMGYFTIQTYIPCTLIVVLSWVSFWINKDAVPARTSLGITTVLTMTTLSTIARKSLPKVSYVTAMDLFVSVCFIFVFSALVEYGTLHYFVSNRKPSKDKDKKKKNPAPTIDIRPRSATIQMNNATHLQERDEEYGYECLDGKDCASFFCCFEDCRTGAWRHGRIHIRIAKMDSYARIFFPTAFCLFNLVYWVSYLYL

IC50 ([1]; dose-dependent assay 1.5625–100 µM, isolated compound and acarbose, read-out: α-glucosidase inhibition IC50) | IGABA potentiation [2] | Effect on IGABA (in words) [2] | Compound | Glucosidase-Inhibitory Activity (%) ([1]; tested at 60 μg/mL, fractions from MeOH extract of PS (plant stem) and acarbose, NAD = no activity detected)
45.1 µM | 5 ± 7% | inactive | COc1cc([C@@H]2Oc3c(OC)cc4c(=O)c5ccccc5oc4c3O[C@H]2CO)ccc1O (relative stereo) [Compound 3, trans-3-(4-hydroxy-3-methoxyphenyl)-2-(hydroxymethyl)-5-methoxy-2,3-dihydro-7H-[1,4]dioxino[2,3-c]xanthen-7-one] | 
 |  |  | C[C@H]1O[C@H](O[C@H]2[C@H](O)[C@@H](O)[C@@H](O[C@H]3[C@H](O)[C@@H](O)C(O)O[C@@H]3CO)O[C@@H]2CO)[C@H](O)[C@@H](O)[C@@H]1N[C@H]1C=C(CO)[C@@H](O)[C@H](O)[C@H]1O (some centres unmarked) [Acarbose, acarbose, reference compound] | 94.3 ± 1.86%
 | 65 ± 13% | significantly enhanced IGABA | COc1cc2c(=O)c3ccccc3oc2c(O)c1OC [Compound 1, 4-hydroxy-2,3-dimethoxy-9H-xanthen-9-one] | 
 | 36 ± 9% | significantly enhanced IGABA | COc1cc2c(=O)c3ccccc3oc2c(OC)c1O [Compound 2, 3-hydroxy-2,4-dimethoxy-9H-xanthen-9-one] | 
